Measurements taken from US7566712B2, “Biaryl piperazinyl-pyridine analogues” (Neurogen Corporation, priority 2003, dated 2009).

Biological target: T1, human capsaicin receptor (Homo sapiens, UniProt Q8NER1)
T1 construct: pBK-CMV expression construct encoding the full length human capsaicin receptor; expressed in transfected cells
Assay: Calcium mobilization assay, determination of antagonist activity (Example 6)
Format: cell-based
Conditions: Table II
Method in brief: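 Antagonism measured as inhibition of capsaicin-evoked (final concentration = EC50, from an 8-point 1 nM–3 μM curve) Fluo-3 calcium signal in stable hVR1-HEK293 cells. Test compounds at 1–5 μM final, 0.5–6 h dark preincubation at room temperature. IC50 = concentration giving 50% reduction versus agonist-only response.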

[1] = determined as described in Example 6 (calcium mobilization, antagonist activity)
[2] = determined as described in Example 6 (antagonist activity), "*" = 1 micromolar or less
[3] = IC50 determined as described in Example 6
[4] = IC50 determined as described in Example 6 (antagonist activity, calcium mobilization)

T1 sequence (Q8NER1 whole entry): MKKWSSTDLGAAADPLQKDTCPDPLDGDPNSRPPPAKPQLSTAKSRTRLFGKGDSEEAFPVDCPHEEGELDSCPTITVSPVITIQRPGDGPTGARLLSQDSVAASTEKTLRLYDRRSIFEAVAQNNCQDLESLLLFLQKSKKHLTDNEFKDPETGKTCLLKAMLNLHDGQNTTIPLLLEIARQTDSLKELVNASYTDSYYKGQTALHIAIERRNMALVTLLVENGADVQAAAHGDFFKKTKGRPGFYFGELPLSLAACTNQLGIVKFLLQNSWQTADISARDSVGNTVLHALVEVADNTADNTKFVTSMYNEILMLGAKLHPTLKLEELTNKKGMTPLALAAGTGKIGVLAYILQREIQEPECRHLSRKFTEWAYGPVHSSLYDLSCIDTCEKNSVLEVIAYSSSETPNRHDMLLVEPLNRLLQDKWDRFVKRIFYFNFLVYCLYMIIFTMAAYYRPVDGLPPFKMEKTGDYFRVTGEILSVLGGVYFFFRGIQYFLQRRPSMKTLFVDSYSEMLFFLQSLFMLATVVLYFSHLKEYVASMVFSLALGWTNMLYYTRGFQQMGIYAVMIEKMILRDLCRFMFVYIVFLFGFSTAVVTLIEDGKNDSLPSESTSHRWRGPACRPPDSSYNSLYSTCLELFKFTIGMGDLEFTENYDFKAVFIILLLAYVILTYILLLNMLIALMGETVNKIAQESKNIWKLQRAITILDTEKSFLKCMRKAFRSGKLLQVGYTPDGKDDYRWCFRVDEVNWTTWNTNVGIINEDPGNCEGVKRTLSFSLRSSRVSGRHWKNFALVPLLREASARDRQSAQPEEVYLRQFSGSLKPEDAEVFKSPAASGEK

SMILES | IC50 [2] [nM] | IC50 [3] [nM] | other results
C[C@H](Nc1nc(-c2ccc(F)c(Cl)c2)cc(N2CCN(c3ncccc3C(F)(F)F)CC2)n1)C(=O)O [Example 620, N-(4-(3-chloro-4-fluorophenyl)-6-{4-[3-(trifluoromethyl)pyridin-2-yl]piperazin-1-yl}pyrimidin-2-yl)alanine] | – | – | IC50 [1]: ≤ 1000 nM
CC(C)c1cccc(-c2nc(N3CCOCC3)nc(N3CCN(c4ccccn4)CC3)n2)c1 [Example 235, 2-(3-isopropylphenyl)-4-morpholin-4-yl-6-(4-pyridin-2-ylpiperazin-1-yl)-1,3,5-triazine] | – | – | IC50 (determined as described in Example 6, class symbol): ≤ 1000 nM
COc1ccc(Cl)cc1-c1nc(N2CCOCC2)nc(N2CCN(c3ccccn3)CC2)n1 [Example 431, 2-(5-chloro-2-methoxyphenyl)-4-morpholin-4-yl-6-(4-pyridin-2-ylpiperazin-1-yl)-1,3,5-triazine] | – | ≤ 1000 | –
CC1CCCN1c1nc(-c2ccc(F)cc2)cc(N2CCN(c3nc(C#N)ccc3C#N)C[C@H]2C)n1 (stereo in doubt) [Example 1014, 6-{4-[6-(4-fluorophenyl)-2-(2-methylpyrrolidin-1-yl)pyrimidin-4-yl]-3-methylpiperazin-1-yl}pyridine-2,5-dicarbonitrile] | – | – | IC50 [4]: ≤ 1000 nM
C=CCN1CCN(c2nc(-c3cccc(C)c3)nc(N3CCN(c4ncccc4C(F)(F)F)CC3)n2)CC1 [Example 453, 2-(4-allylpiperazin-1-yl)-4-(3-methylphenyl)-6-{4-[3-(trifluoromethyl)pyridin-2-yl]piperazin-1-yl}-1,3,5-triazine] | – | ≤ 1000 | –
Cc1cc(-c2cc(N3CCN(c4ncccc4C(F)(F)F)CC3)nc(N(CCO)C(C)C)n2)ccc1F [Example 687, 2-[(4-(4-fluoro-3-methylphenyl)-6-{4-[3-(trifluoromethyl)pyridin-2-yl]piperazin-1-yl}pyrimidin-2-yl)(isopropyl)amino]ethanol] | – | – | IC50 [1]: ≤ 1000 nM
C=CCN1CCN(c2nc(-c3ccc(F)cc3)nc(N3CCN(c4ncccc4C(F)(F)F)CC3)n2)CC1 [Example 446, 2-(4-allylpiperazin-1-yl)-4-(4-fluorophenyl)-6-{4-[3-(trifluoromethyl)pyridin-2-yl]piperazin-1-yl}-1,3,5-triazine] | – | ≤ 1000 | –
C[C@@H]1CN(c2ccccc2F)CCN1c1cc(-c2ccc(F)c(Cl)c2)nc(N2CCC[C@@H]2C)n1 [Example 989, 4-(3-chloro-4-fluorophenyl)-6-[(2R)-4-(2-fluorophenyl)-2-methylpiperazin-1-yl]-2-[(2S)-2-methylpyrrolidin-1-yl]pyrimidlne] | – | – | IC50 [4]: ≤ 1000 nM
Cc1cccnc1-c1nc(-c2ccc(F)c(Cl)c2)cc(N2CCN(c3ncccc3C(F)(F)F)CC2)n1 [Example 616, 4-(3-chloro-4-fluorophenyl)-2-(3-methylpyridin-2-yl)-6-{4-[3-(trifluoromethyl)pyridin-2-yl]piperazin-1-yl}pyrimidine] | – | – | IC50 [1]: ≤ 1000 nM
Fc1ccc(-c2cc(N3CCN(c4ncccc4C(F)(F)F)CC3)nc(C3CCNCC3)n2)cc1Cl [Example 871, 4-(3-chloro-4-fluorophenyl)-2-piperidin-4-yl-6-{4-[3-(trifluoromethyl)pyridin-2-yl]piperazin-1-yl}pyrimidine] | ≤ 1000 | – | –
Cc1cc(-c2cc(N3CCN(c4ncccc4Cl)CC3)nc(N(C)C(C)C)n2)ccc1F [Example 730, 4-[4-(3-chloropyridin-2-yl)piperazin-1-yl]-6-(4-fluoro-3-methylphenyl)-N-isopropyl-N-methylpyrimidin-2-amine] | – | – | IC50 [1]: ≤ 1000 nM
CC1CCCN1c1nc(-c2ccc3c(c2)CN(C)CC3(C)C)cc(N2CCN(c3ncccc3C(F)(F)F)CC2)n1 (centres unmarked) [Example 836, 2,4,4-trimethyl-7-(2-(2-methylpyrrolidin-1-yl)-6-{4-[3-(trifluoromethyl)pyridin-2-yl]piperazin-1-yl}pyrimidin-4-yl)-1,2,3,4-tetrahydroisoquinoline] | ≤ 1000 | – | –
Cc1cc(-c2cc(N3CCN(c4ncccc4C(F)(F)F)CC3)nc(N3CCN(C(C)C)CC3)n2)ccc1F [Example 716, 4-(4-fluoro-3-methylphenyl)-2-(4-isopropylpiperazin-1-yl)-6-{4-[3-(trifluoromethyl)pyridin-2-yl]piperazin-1-yl}pyrimidine] | – | – | IC50 [1]: ≤ 1000 nM
Cc1cccnc1N1CCN(c2cc(-c3ccc(F)cc3)nc(N3CCCC3C)n2)CC1 (centres unmarked) [Example 702, 4-(4-fluorophenyl)-6-[4-(3-methylpyridin-2-yl)piperazin-1-yl]-2-(2-methylpyrrolidin-1-yl)pyrimidine] | – | – | IC50 [1]: ≤ 1000 nM

Second part, led by results:

IC50 [2] [nM] | IC50 [3] [nM] | SMILES | other results
≤ 1000 | – | C[C@@H]1CN(c2ncccc2F)CCN1c1cc(-c2ccc(F)c(F)c2)nc(Cl)n1 [Example 894, 2-chloro-4-(3,4-difluorophenyl)-6-[(2R)-4-(3-fluoropyridin-2-yl)-2-methylpiperazin-1-yl]pyrimidine] | –
– | ≤ 1000 | CCc1ccc(-c2cc(N3CCN(c4ncccc4C)C[C@H]3C)nc(N3CCOCC3)n2)cc1 [Example 510, 4-{4-(4-ethylphenyl)-6-[(2R)-2-methyl-4-(3-methylpyridin-2-yl)piperazin-1-yl]pyrimidin-2-yl}morpholine] | –
– | ≤ 1000 | Cc1cccnc1N1CCN(c2cc(-c3cccc(Cl)c3)nc(N3CCOCC3)n2)[C@H](C)C1 [Example 480, 4-{4-(3-chlorophenyl)-6-[(2R)-2-methyl-4-(3-methylpyridin-2-yl)piperazin-1-yl]pyrimidin-2-yl}morpholine] | –
≤ 1000 | – | C[C@@H]1CN(c2ncccc2Cl)CCN1c1cc(-c2ccc(C#N)cc2)nc(S(C)(=O)=O)n1 [Example 847, 4-[6-[(2R)-4-(3-chloropyridin-2-yl)-2-methylpiperazin-1-yl]-2-(methylsulfonyi)pyrimidin-4-yl]benzonitrile] | –
– | ≤ 1000 | C[C@@H]1CN(c2ncccc2Cl)CCN1c1cc(-c2cccc(OC(F)(F)F)c2)nc(N2CCOCC2)n1 [Example 535, 4-{4-[(2R)-4-(3-chloropyridin-2-yl)-2-methylpiperazin-1-yl]-6-[3-(trifluoromethoxy)phenyl]pyrimidin-2-yl}morpholine] | –
≤ 1000 | – | Fc1ccc(-c2cc(N3CCN(c4ncccc4C(F)(F)F)CC3)nc(-c3ccccn3)n2)cc1Cl [Example 830, 4-(3-chloro-4-fluorophenyl)-2-pyridin-2-yl-6-{4-[3-(trifluoromethyl)pyridin-2-yl]piperazin-1-yl}pyrimidine] | –
≤ 1000 | – | CCCN1CCN(c2nc(-c3ccc(F)c(Cl)c3)cc(N3CCN(c4ncccc4Cl)C[C@H]3C)n2)CC1 [Example 779, 4-(3-chloro-4-fluorophenyl)-6-[(2R)-4-(3-chloropyridin-2-yl)-2-methylpiperazin-1-yl]-2-(4-propylpiperazin-1-yl)pyrimidine] | –
– | ≤ 1000 | CC(C)Oc1cccc(-c2cc(N3CCN(c4ncccc4Cl)C[C@H]3C)nc(N3CCOCC3)n2)c1 [Example 544, 4-[4-[(2R)-4-(3 chloropyridin-2-yl)-2-methylpiperazin-1-yl]-6-(3-isopropoxyphenyl)pyrimidin-2-yl]morpholine] | –
≤ 1000 | – | CC1CCCN1c1nc(-c2ccc(F)c(F)c2)cc(N2CCN(c3ncccc3C(F)(F)F)C[C@H]2C)n1 (stereo partly drawn) [Example 792, 4-(3,4-difluorophenyl)-2-(2-methylpyrrolidin-1-yl)-6-{(2R)-2-methyl-4-[3-(trifluoromethyl)pyridin-2-yl]piperazin-1-yl}pyrimidine] | –
